Source: patent US20260193264A1, “BENZOYPARAZINE PYRAZINES AND THEIR USES” (FOGHORN THERAPEUTICS INC., priority 2022, published 2026)

What was measured:
[1] = target: T1, HiBiT-BRM fusion protein in stable HeLa cell line (Homo sapiens, UniProt P51531); assay: HiBiT-BRM cell-based degradation assay (Nano-Glo HiBiT Lytic Detection, 24 h); set-up: DC50: scale not given here; settings: HeLa HiBiT-BRM cells; for DC50: read-out: BRM HiBit Degradation IC50; for BRM HiBit Degradation Maximum (%): top dose 30 μM
T1 construct: expressed in transfected cells
Summary of the method: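 HeLa stably expressing HiBiT-BRM; 24 h compound exposure, 10-pt 3-fold dilution from 30 μM final, duplicates. Lytic LgBiT complementation, luminescence. % degradation vs DMSO (HC) and 2 μM known BRM/BRG1 degrader (LC).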

[2] = target: T2, HiBit-BRG1 fusion protein in stable HeLa cell line expressing HiBit-BRG1 and LgBit (Homo sapiens, UniProt P51532); assay: HiBiT-BRG1 cell-based degradation assay (Nano-Glo HiBiT, 24 h); settings: HeLa HiBit-BRG1/LgBit cells; for Dmax: top dose 30 μM, read-out: BRG1 HiBit Degradation Maximum (%); for DC50: read-out: BRMG1 HiBit Degradation IC50
T2 construct: expressed in transfected cells
Summary of the method: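 Degradation calculated from NanoBiT luminescence relative to DMSO-treated cells (high) and cells given 2 μM known BRM/BRG1 degrader (low). HeLa cells stably expressing HiBiT-BRG1 plus LgBiT were exposed to compound for 24 h before lytic HiBiT detection.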

T1 sequence (P51531 whole entry, the tested form may be a part): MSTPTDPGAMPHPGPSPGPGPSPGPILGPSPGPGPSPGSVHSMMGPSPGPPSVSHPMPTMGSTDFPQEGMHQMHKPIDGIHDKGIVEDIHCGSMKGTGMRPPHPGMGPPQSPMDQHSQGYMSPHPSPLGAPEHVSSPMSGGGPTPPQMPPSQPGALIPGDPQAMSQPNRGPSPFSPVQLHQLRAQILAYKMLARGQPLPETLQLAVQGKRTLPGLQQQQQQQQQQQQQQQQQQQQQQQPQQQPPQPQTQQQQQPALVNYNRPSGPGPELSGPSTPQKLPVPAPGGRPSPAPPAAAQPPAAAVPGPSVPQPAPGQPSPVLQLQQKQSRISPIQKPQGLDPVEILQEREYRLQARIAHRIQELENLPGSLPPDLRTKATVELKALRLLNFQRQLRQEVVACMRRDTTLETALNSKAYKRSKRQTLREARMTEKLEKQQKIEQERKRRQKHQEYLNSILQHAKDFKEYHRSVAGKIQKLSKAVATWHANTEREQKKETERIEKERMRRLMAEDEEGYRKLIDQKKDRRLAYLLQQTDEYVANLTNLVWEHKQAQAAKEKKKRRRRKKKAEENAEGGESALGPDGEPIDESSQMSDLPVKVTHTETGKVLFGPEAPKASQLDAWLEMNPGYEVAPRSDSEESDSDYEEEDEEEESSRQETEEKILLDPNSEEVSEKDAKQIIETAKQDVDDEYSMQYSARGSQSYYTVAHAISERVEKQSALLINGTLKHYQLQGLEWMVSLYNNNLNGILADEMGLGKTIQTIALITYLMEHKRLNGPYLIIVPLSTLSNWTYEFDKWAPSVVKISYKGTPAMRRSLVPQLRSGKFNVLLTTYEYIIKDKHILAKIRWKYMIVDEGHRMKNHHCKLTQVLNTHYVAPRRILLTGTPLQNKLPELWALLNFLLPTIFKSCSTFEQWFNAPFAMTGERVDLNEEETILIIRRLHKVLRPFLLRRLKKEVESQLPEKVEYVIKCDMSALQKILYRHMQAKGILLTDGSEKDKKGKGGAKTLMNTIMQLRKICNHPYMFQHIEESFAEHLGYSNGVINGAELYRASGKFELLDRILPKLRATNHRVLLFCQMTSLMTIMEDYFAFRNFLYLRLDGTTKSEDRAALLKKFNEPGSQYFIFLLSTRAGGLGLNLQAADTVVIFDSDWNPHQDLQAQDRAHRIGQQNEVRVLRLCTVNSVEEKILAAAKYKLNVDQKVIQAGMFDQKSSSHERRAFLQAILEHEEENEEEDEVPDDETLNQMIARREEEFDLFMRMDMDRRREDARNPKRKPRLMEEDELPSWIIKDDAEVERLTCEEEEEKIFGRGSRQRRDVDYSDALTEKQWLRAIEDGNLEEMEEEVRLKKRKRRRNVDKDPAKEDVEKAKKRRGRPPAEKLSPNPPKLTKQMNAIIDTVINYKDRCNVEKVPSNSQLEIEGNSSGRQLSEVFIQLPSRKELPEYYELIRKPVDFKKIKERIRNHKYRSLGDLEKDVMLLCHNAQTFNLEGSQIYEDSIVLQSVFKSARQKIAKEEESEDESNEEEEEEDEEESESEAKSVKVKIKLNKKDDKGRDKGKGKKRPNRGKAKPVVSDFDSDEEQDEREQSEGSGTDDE
T2 sequence (P51532 whole entry, the tested form may be a part): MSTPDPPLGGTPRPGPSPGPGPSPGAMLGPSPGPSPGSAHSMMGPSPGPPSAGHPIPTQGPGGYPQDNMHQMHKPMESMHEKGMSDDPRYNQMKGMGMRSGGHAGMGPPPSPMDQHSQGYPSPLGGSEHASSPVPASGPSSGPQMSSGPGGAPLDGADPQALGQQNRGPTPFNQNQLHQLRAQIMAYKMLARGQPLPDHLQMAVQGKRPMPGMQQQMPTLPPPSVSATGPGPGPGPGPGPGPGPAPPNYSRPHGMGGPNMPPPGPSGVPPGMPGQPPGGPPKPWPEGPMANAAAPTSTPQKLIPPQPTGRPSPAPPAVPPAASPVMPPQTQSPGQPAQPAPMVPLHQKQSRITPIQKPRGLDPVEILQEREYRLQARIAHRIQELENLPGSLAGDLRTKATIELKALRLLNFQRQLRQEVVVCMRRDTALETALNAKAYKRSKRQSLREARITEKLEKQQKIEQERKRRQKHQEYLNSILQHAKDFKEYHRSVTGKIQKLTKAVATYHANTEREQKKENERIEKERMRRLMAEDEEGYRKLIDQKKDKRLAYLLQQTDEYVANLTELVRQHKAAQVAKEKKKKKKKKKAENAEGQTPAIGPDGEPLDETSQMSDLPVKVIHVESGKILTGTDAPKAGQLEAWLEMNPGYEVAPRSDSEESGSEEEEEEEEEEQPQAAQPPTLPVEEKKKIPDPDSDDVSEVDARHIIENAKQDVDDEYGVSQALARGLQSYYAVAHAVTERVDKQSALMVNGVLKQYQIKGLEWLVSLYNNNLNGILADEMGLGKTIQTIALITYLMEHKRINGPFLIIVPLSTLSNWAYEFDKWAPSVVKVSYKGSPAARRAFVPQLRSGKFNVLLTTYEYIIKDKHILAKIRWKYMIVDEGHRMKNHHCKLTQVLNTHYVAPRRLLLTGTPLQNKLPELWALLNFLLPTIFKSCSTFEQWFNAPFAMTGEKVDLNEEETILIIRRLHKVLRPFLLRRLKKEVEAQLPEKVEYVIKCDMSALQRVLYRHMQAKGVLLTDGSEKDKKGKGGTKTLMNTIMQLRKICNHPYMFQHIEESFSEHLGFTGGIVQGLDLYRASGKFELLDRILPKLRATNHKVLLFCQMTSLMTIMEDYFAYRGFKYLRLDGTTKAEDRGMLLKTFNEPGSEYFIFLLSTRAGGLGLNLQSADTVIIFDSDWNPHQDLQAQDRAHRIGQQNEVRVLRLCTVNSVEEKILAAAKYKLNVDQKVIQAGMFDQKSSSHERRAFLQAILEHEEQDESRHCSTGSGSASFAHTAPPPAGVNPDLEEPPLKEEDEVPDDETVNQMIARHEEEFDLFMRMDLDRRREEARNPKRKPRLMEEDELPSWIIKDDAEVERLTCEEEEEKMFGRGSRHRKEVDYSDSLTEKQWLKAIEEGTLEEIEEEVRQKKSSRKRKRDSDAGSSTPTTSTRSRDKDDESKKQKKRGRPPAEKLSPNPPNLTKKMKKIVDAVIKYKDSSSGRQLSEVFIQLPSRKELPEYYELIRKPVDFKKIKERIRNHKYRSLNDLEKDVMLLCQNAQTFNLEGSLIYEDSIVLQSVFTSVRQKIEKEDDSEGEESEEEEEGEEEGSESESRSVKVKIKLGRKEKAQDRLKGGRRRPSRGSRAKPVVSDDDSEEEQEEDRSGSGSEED

## Cc1ncsc1-c1ccc([C@H](C)NC(=O)[C@@H]2C[C@@H](O)CN2C(=O)[C@@H](c2cccc(N3CC4(C3)CN(c3ccc5cc(-c6ccccc6O)nnc5c3)C4)c2)C(C)C)cc1 [Compound 174, (2S,4R)-4-hydroxy-1-((R)-2-(3-(6-(3-(2-hydroxyphenyl)cinnolin-7-yl)-2,6-diazaspiro[3.3]heptan-2-yl)phenyl)-3-methylbutanoyl)-N—((S)-1-(4-(4-methylthiazol-5-yl)phenyl)ethyl)pyrrolidine-2-carboxamide]
[1]
  DC50: > 10 nM
  BRM HiBit Degradation Maximum (%): A (“A” indicates maximum degradation ≥75%)
[2]
  Dmax: < 50%

## Cc1ncsc1-c1ccc([C@H](C)NC(=O)[C@@H]2C[C@@H](O)CN2C(=O)[C@@H](c2ccnc(N3CC4(CN(c5ccc6cc(-c7ccccc7O)nnc6c5)C4)C3)c2)C(C)C)cc1 [Compound 175, (2S,4R)-4-hydroxy-1-[(2R)-2-(2-{6-[3-(2-hydroxyphenyl)cinnolin-7-yl]-2,6-diazaspiro[3.3]heptan-2-yl}pyridin-4-yl)-3-methylbutanoyl]-N-[(1S)-1-[4-(4-methyl-1,3-thiazol-5-yl)phenyl]ethyl]pyrrolidine-2-carboxamide]
[1]
  DC50: > 10 nM
  BRM HiBit Degradation Maximum (%): A (“A” indicates maximum degradation ≥75%)
[2]
  Dmax: < 50%

## Cc1ncsc1-c1ccc([C@H](C)NC(=O)[C@@H]2C[C@@H](O)CN2C(=O)[C@H](C(C)C)n2cc(-c3cc4cc(-c5ccccc5O)nnc4cc3F)nn2)cc1 [Compound 176, (2S,4R)-1-((S)-2-(4-(7-fluoro-3-(2-hydroxyphenyl)cinnolin-6-yl)-1H-1,2,3-triazol-1-yl)-3-methylbutanoyl)-4-hydroxy-N-((S)-1-(4-(4-methylthiazol-5-yl)phenyl)ethyl)pyrrolidine-2-carboxamide]
[1]
  DC50: < 10 nM
  BRM HiBit Degradation Maximum (%): A (“A” indicates maximum degradation ≥75%)
[2]
  DC50: < 10 nM
  Dmax: > 75%

## CC(C)[C@@H](C(=O)N1C[C@H](O)C[C@H]1C(=O)N[C@@H](C)c1ccc(F)cc1)n1cc(-c2ccc3nnc(-c4cccc(F)c4O)cc3c2)nn1 [Compound 177, (2S,4R)-1-((S)-2-(4-(3-(3-fluoro-2-hydroxyphenyl)cinnolin-6-yl)-1H-1,2,3-triazol-1-yl)-3-methylbutanoyl)-N-((S)-1-(4-fluorophenyl)ethyl)-4-hydroxypyrrolidine-2-carboxamide]
[1]
  DC50: < 10 nM
  BRM HiBit Degradation Maximum (%): A (“A” indicates maximum degradation ≥75%)
[2]
  DC50: > 10 nM
  Dmax: > 75%

## CC(C)[C@@H](C(=O)N1C[C@H](O)C[C@H]1C(=O)N[C@@H](C)c1ccc(Br)cc1)n1cc(-c2ccc3nnc(-c4cccc(F)c4O)cc3c2)nn1 [Compound 178, (2S,4R)-N-((S)-1-(4-bromophenyl)ethyl)-1-((S)-2-(4-(3-(3-fluoro-2-hydroxyphenyl)cinnolin-6-yl)-1H-1,2,3-triazol-1-yl)-3-methylbutanoyl)-4-hydroxypyrrolidine-2-carboxamide]
[1]
  DC50: < 10 nM
  BRM HiBit Degradation Maximum (%): A (“A” indicates maximum degradation ≥75%)
[2]
  DC50: > 10 nM
  Dmax: > 75%

## Cc1ncsc1-c1ccc([C@H](C)NC(=O)[C@@H]2C[C@@H](O)CN2C(=O)[C@@H](c2cc(N3CC4(C3)CN(c3cc5nnc(-c6ccccc6O)cc5cc3F)C4)no2)C(C)C)cc1 [Compound 179, (2S,4R)-1-((R)-2-(3-(6-(6-fluoro-3-(2-hydroxyphenyl)cinnolin-7-yl)-2,6-diazaspiro [3.3]heptan-2-yl)isoxazol-5-yl)-3-methylbutanoyl)-4-hydroxy-N-((S)-1-(4-(4-methylthiazol-5-yl)phenyl)ethyl)pyrrolidine-2-carboxamide]
[1]
  DC50: < 10 nM
  BRM HiBit Degradation Maximum (%): A (“A” indicates maximum degradation ≥75%)
[2]
  Dmax: < 50%

## Cc1ncsc1-c1ccc([C@H](C)NC(=O)[C@@H]2C[C@@H](O)CN2C(=O)[C@@H](c2cc(N3CC4(C3)CN(c3cc5nnc(-c6cccc(F)c6O)cc5cc3C3CC3)C4)no2)C(C)C)cc1 [Compound 180, (2S,4R)-1-((R)-2-(3-(6-(6-cyclopropyl-3-(3-fluoro-2-hydroxyphenyl)cinnolin-7-yl)-2,6-diazaspiro[3.3]heptan-2-yl)isoxazol-5-yl)-3-methylbutanoyl)-4-hydroxy-N-((S)-1-(4-(4-methylthiazol-5-yl)phenyl)ethyl)pyrrolidine-2-carboxamide]
[1]
  DC50: < 10 nM
  BRM HiBit Degradation Maximum (%): A (“A” indicates maximum degradation ≥75%)
[2]
  Dmax: < 50%

## CNC(=O)[C@@H]1C[C@@H](O)CN1C(=O)[C@@H](c1cc(N2CC3(CN(c4ccc5nnc(-c6ccccc6O)cc5c4)C3)C2)no1)C(C)C [Compound 181, (2S,4R)-4-hydroxy-1-((R)-2-(3-(6-(3-(2-hydroxyphenyl)cinnolin-6-yl)-2,6-diazaspiro[3.3]heptan-2-yl)isoxazol-5-yl)-3-methylbutanoyl)-N-methylpyrrolidine-2-carboxamide]
[1]
  DC50: > 100 nM
  BRM HiBit Degradation Maximum (%): A (“A” indicates maximum degradation ≥75%)
[2]
  Dmax: < 50%

## Cc1ncsc1-c1ccc([C@H](C)NC(=O)[C@@H]2C[C@@H](O)CN2C(=O)[C@@H](c2cc(N3CCC(Oc4ccc5nnc(-c6ccccc6O)cc5c4)CC3)no2)C(C)C)cc1 [Compound 182, (2S,4R)-4-hydroxy-1-((R)-2-(3-(4-((3-(2-hydroxyphenyl)cinnolin-6-yl)oxy)piperidin-1-yl)isoxazol-5-yl)-3-methylbutanoyl)-N-((S)-1-(4-(4-methylthiazol-5-yl)phenyl)ethyl)pyrrolidine-2-carboxamide]
[1]
  DC50: < 10 nM
  BRM HiBit Degradation Maximum (%): A (“A” indicates maximum degradation ≥75%)
[2]
  DC50: > 10 nM
  Dmax: > 75%

## Cc1ncsc1-c1ccc([C@H](C)NC(=O)[C@@H]2C[C@@H](O)CN2C(=O)[C@@H](c2cc(N3CCC(Oc4ccc5cc(-c6ccccc6O)nnc5c4)CC3)no2)C(C)C)cc1 [Compound 183, (2S,4R)-4-hydroxy-1-((R)-2-(3-(4-((3-(2-hydroxyphenyl)cinnolin-7-yl)oxy)piperidin-1-yl)isoxazol-5-yl)-3-methylbutanoyl)-N-((S)-1-(4-(4-methylthiazol-5-yl)phenyl)ethyl)pyrrolidine-2-carboxamide]
[1]
  DC50: < 10 nM
  BRM HiBit Degradation Maximum (%): A (“A” indicates maximum degradation ≥75%)
[2]
  DC50: > 10 nM
  Dmax: > 50%

## Cc1ncsc1-c1ccc([C@H](C)NC(=O)[C@@H]2C[C@@H](O)CN2C(=O)[C@@H](c2cc(N3CC4(CC(Oc5ccc6nnc(-c7ccccc7O)cc6c5)C4)C3)no2)C(C)C)cc1 [Compound 184, (2S,4R)-4-hydroxy-1-((R)-2-(3-(6-((3-(2-hydroxyphenyl)cinnolin-6-yl)oxy)-2-azaspiro[3.3]heptan-2-yl)isoxazol-5-yl)-3-methylbutanoyl)-N-((S)-1-(4-(4-methylthiazol-5-yl)phenyl)ethyl)pyrrolidine-2-carboxamide]
[1]
  DC50: < 10 nM
  BRM HiBit Degradation Maximum (%): A (“A” indicates maximum degradation ≥75%)
[2]
  DC50: > 10 nM
  Dmax: > 50%

## Cc1ncsc1-c1ccc([C@H](C)NC(=O)[C@@H]2C[C@@H](O)CN2C(=O)[C@H](C(C)C)n2cc(C3CC4(C3)CN(c3ccc5cc(-c6ccccc6O)nnc5c3)C4)nn2)cc1 [Compound 186, (2S,4R)-4-hydroxy-1-[(2S)-2-(4-{2-[3-(2-hydroxyphenyl)cinnolin-7-yl]-2-azaspiro[3.3]heptan-6-yl}-1,2,3-triazol-1-yl)-3-methylbutanoyl]-N-[(1S)-1-[4-(4-methyl-1,3-thiazol-5-yl)phenyl]ethyl]pyrrolidine-2-carboxamide]
[1]
  DC50: < 10 nM
  BRM HiBit Degradation Maximum (%): A (“A” indicates maximum degradation ≥75%)
[2]
  DC50: < 10 nM
  Dmax: > 75%

## Cc1ncsc1-c1ccc([C@H](C)NC(=O)[C@@H]2C[C@@H](O)CN2C(=O)[C@@H](c2cc(N3C[C@]4(C)CN(c5ccc6cc(-c7ccccc7O)nnc6c5)C[C@]4(C)C3)no2)C(C)C)cc1 [Compound 187, (2S,4R)-4-hydroxy-1-((R)-2-(3-((3aR,6aS)-5-(3-(2-hydroxyphenyl)cinnolin-7-yl)-3a,6a-dimethylhexahydropyrrolo[3,4-c]pyrrol-2(1H)-yl)isoxazol-5-yl)-3-methylbutanoyl)-N-((S)-1-(4-(4-methylthiazol-5-yl)phenyl)ethyl)pyrrolidine-2-carboxamide]
[1]
  DC50: < 10 nM
  BRM HiBit Degradation Maximum (%): A (“A” indicates maximum degradation ≥75%)
[2]
  DC50: > 10 nM
  Dmax: > 75%

## Cc1ncsc1-c1ccc([C@H](C)NC(=O)[C@@H]2C[C@@H](O)CN2C(=O)[C@@H](c2cc(N3C[C@]4(C)CN(c5ccc6nnc(-c7ccccc7O)cc6c5)C[C@]4(C)C3)no2)C(C)C)cc1 [Compound 188, (2S,4R)-4-hydroxy-1-((R)-2-(3-((3aR,6aS)-5-(3-(2-hydroxyphenyl)cinnolin-6-yl)-3a,6a-dimethylhexahydropyrrolo[3,4-c]pyrrol-2(1H)-yl)isoxazol-5-yl)-3-methylbutanoyl)-N-((S)-1-(4-(4-methylthiazol-5-yl)phenyl)ethyl)pyrrolidine-2-carboxamide]
[1]
  DC50: > 10 nM
  BRM HiBit Degradation Maximum (%): A (“A” indicates maximum degradation ≥75%)
[2]
  DC50: > 10 nM
  Dmax: > 75%
